Earlier results as cited in patent US20250177407A1 (Closed Loop Medicine Ltd., priority 2023, published 2025).
Where two headings read alike, the source gives them in different places. Marks after values point to notes of the source that are not given here.

Experiments:
[1] = not given; remark: listed apart in the source
[2] = not given; remark: listed apart in the source
[3] = not given; remark: listed apart in the source
[4] = not given; remark: listed apart in the source
factor Xa activity = factor Xa activity (Homo sapiens, UniProt P00742)
factor Xa activity, sequence (P00742 235-488 limits assumed): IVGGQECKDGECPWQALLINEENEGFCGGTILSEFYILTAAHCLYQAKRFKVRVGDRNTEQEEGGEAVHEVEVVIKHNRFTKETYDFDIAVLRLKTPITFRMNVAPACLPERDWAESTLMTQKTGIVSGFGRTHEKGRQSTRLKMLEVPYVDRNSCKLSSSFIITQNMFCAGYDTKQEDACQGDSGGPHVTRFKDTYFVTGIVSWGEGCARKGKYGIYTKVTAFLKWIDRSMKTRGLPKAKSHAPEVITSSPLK
factor Xa activity, sequence (P00742 41-179 partner limits assumed): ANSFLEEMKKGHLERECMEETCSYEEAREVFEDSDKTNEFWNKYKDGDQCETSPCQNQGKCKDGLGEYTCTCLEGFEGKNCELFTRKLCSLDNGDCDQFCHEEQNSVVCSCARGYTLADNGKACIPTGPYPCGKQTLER

[5] = test system: patients with nonvalvular AF; settings: ROCKET-AF
patients with AF = settings: management of AF
[6] = clearance adjustment, comedication

Compound: O=C(NC[C@H]1CN(c2ccc(N3CCOCC3=O)cc2)C(=O)O1)c1ccc(Cl)s1 [rivaroxaban]
- bioavailability (20 mg tablets, fasting, healthy subjects): approximately 66%
- variability in drug plasma levels for a given dose (between patients): 6- to 10 fold
- half-life (elderly): 11 to 13 h
- half life (elderly patients): ~12 h
- half-life (healthy volunteers): 5 to 9 h
- fraction of absorbed drug eliminated unchanged via the kidney (human, in vivo): 30%
- fraction of absorbed drug metabolised by hepatic CYP 3A4/5 and CYP-independent enzymes (human, in vivo): Approximately 60%
- time to peak levels (once daily immediate release with food): 1 to 2 h
- bioavailability (oral 2.5 and 10 mg tablets, not affected by food): 80-100%
- time to peak concentration (oral administration): 2 to 4 h
- half-life (population not specified): 5 to 9 h
- half life (young patients): 5 to 9 h
- plasma protein binding [1]: 92-95%
- interethnic differences in PK and PD characteristics ([2]; Caucasian, African-American, Hispanic, Japanese, Chinese patients (EMA)): no clinically relevant interethnic differences
- higher exposure compared to other ethnicities ([2]; healthy Japanese subjects, on average (FDA)): 20-40%
- increase in AUC compared with healthy subjects ([2]; mild (Child-Pugh A) hepatic impairment): 15%
- increase in exposure ([2]; mild renal impairment (CrCl 50-79 mL/min)): 44%
- increase in the effect-time curve AUC ([2]; moderate hepatic impairment): 159%
- prothrombin time ([2]; moderate hepatic impairment): significant prolongation
- increase in exposure ([2]; moderate renal impairment (CrCl 30-49 mL/min)): 52%
- increase in exposure ([2]; severe renal impairment (CrCl<30 mL/min)): 64%
- θCL/F, P-gp inhibitor ([3]; clearance adjustment, P-gp inhibitor comedication): 0.996 Proportion
- θCL/F, VTE ≤72 hr ([3]; clearance adjustment, VTE prevention after hip or knee surgery, less than 72 hours): 1.04 Proportion
- θCL/F, VTE >72 hr ([3]; clearance adjustment, VTE prevention after hip or knee surgery, more than 72 hours): 1.29 Proportion
- θCL/F, ACS ([3]; clearance adjustment, acute coronary syndrome): 1.14 Proportion
- θCL/F, CYP3A4 inducer [3, 6]: 1.3 Proportion
- θCL/F, Medium CYP3A4 inhibitor [3, 6]: 0.863 Proportion
- θCL/F, Strong CYP3A4 inhibitor [3, 6]: 0.978 Proportion
- θCL/F, Weak CYP3A4 inhibitor [3, 6]: 0.939 Proportion
- θCL/F, AF ([3]; clearance adjustment, stroke prevention in AF): 0.849 Proportion
- θV/F, Age ([3]; covariate effect of age on V/F): −0.189 Power
- θCL/F, Weight ([3]; covariate effect of body weight on CL/F): −0.278 Power
- θV/F, Weight ([3]; covariate effect of body weight on V/F): 0.216 Power
- θCL/F, CRCL ([3]; covariate effect of creatinine clearance on CL/F): 0.406 Power
- θV/F, Sex ([3]; covariate effect of sex on V/F): 0.889 Proportion
- ω^2CL/F ([3]; inter-individual variability): 0.167 Variance
- ω^2CL/F, V/F ([3]; inter-individual variability): 0.0674 Covariance
- ω^2Ka ([3]; inter-individual variability): 0.628 Variance
- ω^2V/F ([3]; inter-individual variability): 0.0391 Variance
- CL/F, apparent clearance ([3]; population PK estimate): 6.58 L/h
- Ka, first-order absorption rate constant ([3]; population PK estimate): 0.821 h⁻¹
- V/F, apparent volume of distribution ([3]; population PK estimate): 62.5 L
- D50 ([3]; relative bioavailability model): 14.4 mg
- σ^2prop ([3]; residual variability): 0.203 Variance
- increase in drug level exposure (AUC) ([4]; CrCl = 30, relative to median CrCl of 69 for the RE-LY study data): 1.8 fold
- increase in drug level exposure (AUC) ([4]; CrCl = 50, relative to median CrCl of 69 for the RE-LY study data): 1.3 fold
- increase in drug level exposure (AUC) ([4]; South Asians compared to other ethnicities): ~26% increase in South Asians compared to
- increase in drug level exposure (AUC) per year older ([4]; age, compared to 72 yr): 0.41% increase per year older compared to 72 yr
- decrease in drug level exposure (AUC) ([4]; comedication PPIs): ~13% decrease
- increase in drug level exposure (AUC) ([4]; comedication amiodarone): 12% increase
- increase in drug level exposure (AUC) ([4]; comedication verapamil): 23% increase
- increase in drug level exposure (AUC) ([4]; females compared to men): ~9% increase in females compared to men
- decrease in Vd ([4]; haemoglobin above 14.3 g · dL^−1): by 4%/1 g · dL^−1 above 14.3 g · dL^−1
- effect of low weight on Cmax ([4]; in vivo): increase Cmax
- increase in drug level exposure (AUC) ([4]; patients with heart failure): ~7% increase in patients with HF
- increase in distribution volume (Vd) per kg above 80 kg ([4]; weight): in distribution volume (Vd) by 0.8%
- slope of prothrombin time versus plasma concentration (prothrombin time; Esmueti et al. (2022), Fisherbrand reagent): 0.018 s/(μg/ L)
- Hill (prothrombin time; Zhao et al. (2022)): 1.37 ^b
- slope of prothrombin time versus plasma concentration (prothrombin time; Zhao et al. (2022)): 0.0018 ^b s/(μg/L)
- Emax (factor Xa activity; Girgis et al. (2014)): 107%
- Emax (factor Xa activity; Mueck et al. (2007)): 0.86 U/ml
- Emax (factor Xa activity; Mueck et al. (2008b), KRS): 0.837 U/ml
- Emax (factor Xa activity; Mueck et al. (2008b), day 1, HRS): 0.881 U/ml
- Emax (factor Xa activity; Mueck et al. (2008b), steady state, HRS): 0.942 U/ml
- FXa0 (second entry of the cell) (factor Xa activity; Tanigawa et al. (2013)): 0.928 U/mL
- Hill (factor Xa activity; Tanigawa et al. (2013)): 1.16
- rate of fatal stroke [5]: 1.7 % per year
- risk of intracranial bleeds [5]: 0.5%

Compound: CC(=O)CC(c1ccccc1)c1c(O)c2ccccc2oc1=O (stereo not shown) [warfarin]
- reduction of stroke (patients with AF): about 60%
- rate of fatal stroke [5]: 2.2 % per year
